Measured values as given in patent US20060009448A1, “Metabolites of 4-(3,4-dichloro-phenyl)-2-[2-(4-methyl-piperazin-1-yl)-benzylidene]thiomorpholin-3-one” (Pfizer Inc., priority 2004, published 2006).

Assay: Percentages of plasma metabolites in human after oral administration of [14C]-Formula I (HPLC radioprofiling of pooled plasma)
Format: in vivo
Experimental: Six healthy male human subjects were administered a single 10 mg (free base) oral dose of 4-(3,4-dichloro-phenyl)-2-[2-(4-methyl-piperazin-1-yl)-benzylidene]-thiomorpholin-3-one containing 100 μCi of [^14C]-4-(3,4-dichloro-phenyl)-2-[2-(4-methyl-piperazin-1-yl)-benzylidene]-thiomorpholin-3-one (Lot# 49,800-103-1, specific activity 15.66 mCi/mmol, radiochemical purity >99%). [drawing 9]
a). Blood sufficient to provide approximately 10 mL plasma for 4-(3,4-dichloro-phenyl)-2-[2-(4-methyl-piperazin-1-yl)-benzylidene]-thiomorpholin-3-one metabolite identification was collected in heparinized tubes at the following approximate times: 2, 8, 24, 48, 96, and 192 hours after drug administration. Samples were centrifuged at approximately 4° C. and the plasma was stored in appropriately labeled, screw-capped opaque polypropylene tubes at −20° C. until analysis.
Plasma samples were pooled by human subject separately according to the method published by Raid, et al. (Raid, et al: Pharm. Res. (1991), 8(4), 541-543). Aliquots (1 mL) from each pool were extracted with 5 mL of acetonitrile. The mixtures were vortex-mixed for 3 minutes, sonicated for 30 minutes and then centrifuged for 7 minutes at 20° C. Aliquotes of the supernatant (2×500 μL) were counted to determine recovery. Approximately 95.1% of the radioactivity was recovered in the supernatants. The supernatants were combined according to subject number to two equal sets and dried in the Turbovap at room temperature. One set of the dried residue (six subjects) was reconstituted in 150 μL of 10 mM ammonium acetate (pH 4.0)/methanol/dimethyl sulfoxide (1.5:1.5:1) and aliquots of 100 μL were injected onto HPLC-Arc system for profiling. The other set of dried residues were combined and reconstituted in 300 μL of 10 mM ammonium acetate (pH 4.0)/methanol/dimethyl sulfoxide (1.5:1.5:1) and 90 μL was injected onto HPLC-MS/MS system for metabolite identification.

% of Total Radioactivity in Plasma, Subject#1 (human Subject#1, single 10 mg oral dose of [14C]-parent compound): 60.6%
% of Total Radioactivity in Plasma, Subject#2 (human Subject#2, single 10 mg oral dose of [14C]-parent compound): 57.6%
% of Total Radioactivity in Plasma, Subject#3 (human Subject#3, single 10 mg oral dose of [14C]-parent compound): 62.8%
% of Total Radioactivity in Plasma, Subject#4 (human Subject#4, single 10 mg oral dose of [14C]-parent compound): 72.2%
% of Total Radioactivity in Plasma, Subject#5 (human Subject#5, single 10 mg oral dose of [14C]-parent compound): 69.6%
% of Total Radioactivity in Plasma, Subject#6 (human Subject#6, single 10 mg oral dose of [14C]-parent compound): 68.3%
% of Total Radioactivity in Plasma, Mean (mean of six human subjects, single 10 mg oral dose of [14C]-parent compound): 65.2%
Structure (SMILES): CN1CCn2c(c(C3SCCN(c4ccc(Cl)c(Cl)c4)C3=O)c3ccccc32)C1 (stereo not shown) [Metabolite M10A]
